Results published in patent US10800792B2, “Inhibitors of Bruton's tyrosine kinase and method of their use” (JANSSEN PHARMACEUTICA NV, priority 2015, dated 2020).

Molecular target: unphosphorylated-BTK kinase domain (UP-BTK), GST-tagged human BTK (389-659aa) (Homo sapiens (Human), UniProt Q06187)
Assay: BTK kinase Lanthascreen binding assay
Details: Lanthascreen tracer competition, 60 minutes incubation; pIC50 = negative log of the IC50 in molar
Method: BTK Kinase Lanthascreen Binding Assay:
A BTK kinase lanthascreen binding assay monitors compound binding to unphosphorylated-BTK kinase domain (UP-BTK), by competing with a fluorescent labeled tracer. […] Data were analyzed using Xlfit™ version 5.3 from ID Business Solutions (Guildford), Microsoft Excel add-in. pIC50 refers to the negative log of the IC50 in molar

unphosphorylated-BTK kinase domain (UP-BTK), GST-tagged human BTK (389-659aa), sequence (Q06187 389-659): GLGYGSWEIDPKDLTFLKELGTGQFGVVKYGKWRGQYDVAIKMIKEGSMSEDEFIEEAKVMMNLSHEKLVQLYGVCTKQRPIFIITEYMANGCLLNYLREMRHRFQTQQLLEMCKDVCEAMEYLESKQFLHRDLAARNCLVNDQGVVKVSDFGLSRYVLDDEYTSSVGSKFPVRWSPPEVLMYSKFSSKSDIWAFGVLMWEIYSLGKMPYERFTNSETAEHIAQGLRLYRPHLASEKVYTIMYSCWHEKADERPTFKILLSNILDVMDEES

SMILES	BTK_I_binding pIC50
CC(C)Oc1cccc(N2C(=O)Nc3c(C(=O)N[C@@H]4CCCNC4)sc4nccc2c34)c1 [Example 637, (R)-5-(3-Isopropoxyphenyl)-4-oxo-N-(piperidin-3-yl)-4,5-dihydro-3H-1-thia-3,5,8-triazaacenaphthlene-2-carboxamide]	5.7
Cc1ccc(Oc2ccccc2)cc1N1C(=O)Nc2c(C(=O)N[C@@H]3CCCN(C(=O)/C(C#N)=C/C4CC4)C3)sc3nccc1c23 [Example 859, (R,E)-N-(1-(2-Cyano-3-cyclopropylacryloyl)piperidin-3-yl)-5-(2-methyl-5-phenoxyphenyl)-4-oxo-4,5-dihydro-3H-1-thia-3,5,8-triazaacenaphthylene-2-carboxamide]	7.4
Cc1ccc(OC(C)C)cc1N1C(=O)Nc2c(C(=O)N[C@@H]3CCCNC3)sc3nccc1c23 [Example 644, (R)-5-(5-Isopropoxy-2-methylphenyl)-4-oxo-N-(piperidin-3-yl)-4,5-dihydro-3H-1-thia-3,5,8-triazaacenaphthylene-2-carboxamide]	<5
C=CC(=O)N1CC[C@@H](NC(=O)c2sc3nccc4c3c2NC(=O)N4c2cnc(Oc3ccccc3)cn2)C1 [Example 699, (R)—N-(1-Acryloylpyrrolidin-3-yl)-4-oxo-5-(5-phenoxypyrazin-2-yl)-4,5-dihydro-3H-1-thia-3,5,8-triazaacenaphthylene-2-carboxamide]	7.2
C=CC(=O)N1CCC[C@@H](NC(=O)c2sc3nccc4c3c2NC(=O)N4c2ccc(Oc3cccnn3)cc2)C1 [Example 791, (R)—N-(1-Acryloylpiperidin-3-yl)-4-oxo-5-(4-(pyridazin-3-yloxy)phenyl)-4,5-dihydro-3H-1-thia-3,5,8-triazaacenaphthylene-2-carboxamide]	6.6
C=CC(=O)N1CCC[C@@H](NC(=O)c2sc3nccc4c3c2NC(=O)N4c2cnc(OC3CCCC3)cc2C)C1 (single isomer, unassigned) [Example 768, (R)—N-(1-Acryloylpiperidin-3-yl)-5-(*S)-(6-(cyclopentyloxy)-4-methylpyridin-3-yl)-4-oxo-4,5-dihydro-3H-1-thia-3,5,8-triazaacenaphthylene-2-carboxamide]	8.2
Cc1cc(OCC(C)C)ncc1N1C(=O)Nc2c(C(=O)N[C@@H]3CCCNC3)sc3nccc1c23 (single isomer, unassigned) [Example 759, (R)-5-(*S)-(6-Isobutoxy-4-methylpyridin-3-yl)-4-oxo-N-(piperidin-3-yl)-4,5-dihydro-3H-1-thia-3,5,8-triazaacenaphthylene-2-carboxamide]	6.7

Other lines, results leading:

BTK_I_binding pIC50	SMILES
5.9	CC(C)(C)OC(=O)N1CCC(NC(=O)c2sc3nccc4c3c2NC(=O)N4c2ccc(Oc3ccccc3)cc2)CC1 [Example 627, tert-Butyl 4-(4-oxo-5-(4-phenoxyphenyl)-4,5-dihydro-3H-1-thia-3,5,8-triazaacenaphthylene-2-carboxamido)piperidine-1-carboxylate]
7.3	Cc1cc(Oc2ccccc2)ccc1N1C(=O)Nc2c(C(=O)N[C@@H]3CCCN(C(=O)/C(C#N)=C/C(C)(C)C)C3)sc3nccc1c23 (single isomer, unassigned) [Example 866, (R,E)-N-(1-(2-Cyano-4,4-dimethylpent-2-enoyl)piperidin-3-yl)-5-(*S)-(2-methyl-4-phenoxyphenyl)-4-oxo-4,5-dihydro-3H-1-thia-3,5,8-triazaacenaphthylene-2-carboxamide]

Same assay, conditions: pIC50 = negative log of the IC50 in molar; 60 minutes incubation, 50 nM Tracer 236

SMILES	BTK_I_binding pIC50
Cc1cc(Oc2ccccc2)ccc1N1C(=O)Nc2c(C(=O)N[C@@H]3CCCN(C(=O)CCS(C)(=O)=O)C3)sc3nccc1c23 [Example 146, (R)-5-(2-Methyl-4-phenoxyphenyl)-N-(1-(3-(methylsulfonyl)propanoyl)piperidin-3-yl)-4-oxo-4,5-dihydro-3H-1-thia-3,5,8-triazaacenaphthylene-2-carboxamide]	7.4
C=CC(=O)N1C[C@H](NC(=O)c2sc3nccc4c3c2NC(=O)N4c2ccc(Oc3ccccc3)cc2C)[C@@H](OC)C1 [Example 54, N-((3S,4S)-1-Acryloyl-4-methoxypyrrolidin-3-yl)-5-(2-methyl-4-phenoxyphenyl)-4-oxo-4,5-dihydro-3H-1-thia-3,5,8-triazaacenaphthylene-2-carboxamide]	7.3
CNCCC(=O)N1CCC[C@@H](NC(=O)c2sc3nccc4c3c2NC(=O)N4c2ccc(Oc3ccccc3)cc2C)C1 [Example 106, (R)-5-(2-Methyl-4-phenoxyphenyl)-N-(1-(3-(methylamino)propanoyl)piperidin-3-yl)-4-oxo-4,5-dihydro-3H-1-thia-3,5,8-triazaacenaphthylene-2-carboxamide]	7.3

Same assay, conditions: unphosphorylated-BTK kinase domain, 50 nM Tracer 236, 60 minutes; pIC50 = negative log of the IC50 in molar

SMILES	BTK_I_binding pIC50
Cc1cc(Oc2ccccc2)ccc1N1C(=O)Nc2c(C(=O)N[C@H]3CCOC3)sc3nccc1c23 (single isomer, unassigned) [Example 323, (S)-5-(*R)-(2-Methyl-4-phenoxyphenyl)-4-oxo-N-(tetrahydrofuran-3-yl)-4,5-dihydro-3H-1-thia-3,5,8-triazaacenaphthylene-2-carboxamide]	5.7
Cc1cc(Oc2ccccc2)ccc1N1C(=O)Nc2c(C(=O)N[C@H]3CNC(=O)C3)sc3nccc1c23 (single isomer, unassigned) [Example 472, (*R)-5-(*R)-(2-Methyl-4-phenoxyphenyl)-4-oxo-N-(5-oxopyrrolidin-3-yl)-4,5-dihydro-3H-1-thia-3,5,8-triazaacenaphthylene-2-carboxamide]	7.4
CCC(=O)N1CCC[C@@H](NC(=O)c2sc3nccc4c3c2NC(=O)N4c2ccc(OC(C)C)cc2)C1 [Example 406, (R)-5-(4-Isopropoxyphenyl)-4-oxo-N-(1-propionylpiperidin-3-yl)-4,5-dihydro-3H-1-thia-3,5,8-triazaacenaphthylene-2-carboxamide]	5.2

Results, then the compound that gave them:

BTK_I_binding pIC50	SMILES
6.5	C/C(=C\C1CC1)C(=O)N1CCC[C@@H](NC(=O)c2sc3nccc4c3c2NC(=O)N4c2ccc(Oc3ccccc3)cc2C)C1 [Example 401, (R,E)-N-(1-(3-Cyclopropyl-2-methylacryloyl)piperidin-3-yl)-5-(2-methyl-4-phenoxyphenyl)-4-oxo-4,5-dihydro-3H-1-thia-3,5,8-triazaacenaphthylene-2-carboxamide]
6.8	O=C(N[C@H]1CNC[C@@H]1O)c1sc2nccc3c2c1NC(=O)N3c1ccc(Oc2ccccc2)cc1 [Example 464, N-((3S,4S)-4-Hydroxypyrrolidin-3-yl)-4-oxo-5-(4-phenoxyphenyl)-4,5-dihydro-3H-1-thia-3,5,8-triazaacenaphthylene-2-carboxamide]

Same assay, conditions: unphosphorylated-BTK kinase domain, 60 minutes incubation, 50 nM Tracer 236; pIC50 = negative log of the IC50 in molar

SMILES	BTK_I_binding pIC50
O=C(NCCN1CCCC1)c1sc2nccc3c2c1NC(=O)N3c1ccc(Oc2ccccc2)cc1 [Example 927, 4-Oxo-5-(4-phenoxyphenyl)-N-(2-(pyrrolidin-1-yl)ethyl)-4,5-dihydro-3H-1-thia-3,5,8-triazaacenaphthylene-2-carboxamide]	6.2
Cc1cc(Oc2ccccc2)ccc1N1C(=O)Nc2c(C(=O)NC3CCN(C(=O)CC#N)CC3)sc3nccc1c23 [Example 944, N-(1-(2-Cyanoacetyl)piperidin-4-yl)-5-(2-methyl-4-phenoxyphenyl)-4-oxo-4,5-dihydro-3H-1-thia-3,5,8-triazaacenaphthylene-2-carboxamide]	5.6
